Reference: patent US4265910A (priority 1979, dated 1981)
Where a name gives a salt, the structure may show the parent alone. Read-outs that look alike come from different tables or passages of the source.

Key:
serum interferon = assay: animal or person; type: in vivo, ICR female mice; details: Mus musculus, L929, ip, 20 h, read-out: Plaque inhibition
[1] = tested on: vaccinia virus (DIE strain); type: in vivo, ICR female mice; details: 8th day after inoculation
Human fibroblast cells = assay: cells; type: cell-based; details: read-out: Inhibition of cytolysis
[2] = Acute toxicity (50% lethal dose); details: mouse, in vivo, ddY male mice 20-25 g
Excerpt: In order to investigate acute toxicity of the ingredients of the present invention, 50% lethal dose of each ingredient was obtained by intravenous and intraperitoneal administration thereof by ddY male mice weighing 20-25 g. From the results shown in Table 5, it is understood that the ingredients had high safety margin.

[3] = ip, intraperitoneal, read-out: 50% Lethal dose, intraperitoneally administered
[4] = intravenous, read-out: 50% Lethal dose, intravenously administered

With CC(C)=CCCC(C)=CCCC(C)=CCCC(C)=CCCC(C)=CCCC(C)=CCCC(C)=CCCC(C)=CCCC(C)=CCCC(C)=CCN [Decaprenylamine hydrochloride] the inhibition at 20 mg/kg (serum interferon) was 47.1%, the inhibition at 40 mg/kg (serum interferon) was 83% and the “Inhibition of tail lesion” value ([1]; 20 mg/kg i.p., consecutively dosed (6 times)) was 77.4%. For the same molecule, the “Inhibition of tail lesion” value ([1]; 20 mg/kg i.p., dosed one time) was 76.1%, the “Inhibition of tail lesion” value ([1]; 20 mg/kg p.o., consecutively dosed (6 times)) was 56.8% and the “Inhibition of tail lesion” value ([1]; 30 mg/kg i.p., dosed one time) was 68.7%. The “Inhibition of tail lesion” value ([1]; 30 mg/kg s.c., dosed one time) was 69.7%, the “Inhibition of tail lesion” value ([1]; 40 mg/kg i.p., consecutively dosed (6 times)) was 88.2% and the “Inhibition of tail lesion” value ([1]; 40 mg/kg i.p., dosed one time) was 79.6%. For the same molecule, the “Inhibition of tail lesion” value ([1]; 50 mg/kg p.o., dosed one time) was 24.1%, the inhibition at 5 µg/disc (Human fibroblast cells) was 64.9% and the LD50 [2, 3] was 1000 mg/kg. It also gave an LD50 [2, 4] of 39.5 mg/kg.

In the case of CC(C)=CCCC(C)=CCCC(C)=CCCC(C)=CCCC(C)=CCCC(C)=CCCC(C)=CCCC(C)=CCCC(C)=CCN [Solanesylamine hydrochloride, solanesylamine hydrochloride], the inhibition at 20 mg/kg (serum interferon) is reported as 81%, the inhibition at 40 mg/kg (serum interferon) is reported as 79.7% and the “Inhibition of tail lesion” value ([1]; 20 mg/kg i.p., dosed one time) is reported as 35.7%. For the same molecule, the “Inhibition of tail lesion” value ([1]; 30 mg/kg i.p., dosed one time) was 72.1%, the “Inhibition of tail lesion” value ([1]; 30 mg/kg s.c., dosed one time) was 23.2% and the “Inhibition of tail lesion” value ([1]; 40 mg/kg p.o., dosed one time) was 40.5%. The inhibition at 5 µg/disc (Human fibroblast cells) was 55.4%, the LD50 [2, 3] was greater than 500 mg/kg and the LD50 [2, 4] was 32.3 mg/kg.

For CC(C)=CCCC(C)=CCCC(C)=CCCC(C)=CCCC(C)=CCCC(C)=CCCC(C)=CCCC(C)=CCCC(C)=CCCC(C)=CCCC(C)=CCN [Undecaprenylamine hydrochloride], the inhibition at 40 mg/kg (serum interferon) was 70.3%, the “Inhibition of tail lesion” value ([1]; 20 mg/kg i.p., dosed one time) was 52.4% and the “Inhibition of tail lesion” value ([1]; 30 mg/kg i.p., dosed one time) was 40.5%. The “Inhibition of tail lesion” value ([1]; 100 mg/kg p.o., dosed one time) was 45.6%, the inhibition at 5 µg/disc (Human fibroblast cells) was 83.3% and the LD50 [2, 3] was greater than 1000 mg/kg. It also gave an LD50 [2, 4] of 18 mg/kg.
